Reference: US7538221B2, “Polymorphs of racemic, dextrorotatory, and levorotatory enantioners of 1-cyclopropyl-6-fluoro-8-methoxy-7-(4-amino-3,3-dimethylpiperidin-1-yl)-1,4-dihydro-4-oxo-quinoline-3-carboxylic acid hydrochloride and mesylate salts” (The Company of Wockhardt Limited, priority 2003, dated 2009)
Where two headings read alike, the source gives them in different places. Each block holds one compound with its values, some of them ahead of it.

Assays:
[1] = Percent relative humidity stability study; type: physicochemical
[2] = Aqueous solubility of salt polymorphs; settings: water, 25 °C, Aqueous Solubility at 25-30° C. (mg/ml)
[3] = solid kept for 20 days in 78% relative humidity

polymorph change on storage (Powder X-ray Diffraction spectrum and aqueous solubility change) [1, 3]: changed to polymorph A-2
Structure (SMILES): COc1c(N2CCC(N)C(C)(C)C2)c(F)cc2c(=O)c(C(=O)O)cn(C3CC3)c12.Cl (racemic) [(±) A-1, (±)-1-cyclopropyl-6-fluoro-8-methoxy-7-(4-amino-3,3-dimethylpiperidin-1-yl)-1,4-dihydro-4-oxo-quinoline-3-carboxylic acid hydrochloride]

polymorph change on storage (Powder X-ray Diffraction spectrum and aqueous solubility change) [1, 3]: changed to polymorph A-2
Structure (SMILES): COc1c(N2CCC(N)C(C)(C)C2)c(F)cc2c(=O)c(C(=O)O)cn(C3CC3)c12.Cl (racemic) [(±) A-3, (±)-1-cyclopropyl-6-fluoro-8-methoxy-7-(4-amino-3,3-dimethylpiperidin-1-yl)-1,4-dihydro-4-oxo-quinoline-3-carboxylic acid hydrochloride]

solubility [2]: 80 to 200 mg/mL
Structure (SMILES): COc1c(N2CCC(N)C(C)(C)C2)c(F)cc2c(=O)c(C(=O)O)cn(C3CC3)c12.CS(=O)(=O)O (racemic) [(±) B-1, (±)-1-cyclopropyl-6-fluoro-8-methoxy-7-(4-amino-3,3-dimethylpiperidin-1-yl)-1,4-dihydro-4-oxo-quinoline-3-carboxylic acid mesylate]

polymorph change on storage (Powder X-ray Diffraction spectrum and aqueous solubility change) [1, 3]: changed to polymorph A-2
Structure (SMILES): COc1c(N2CC[C@@H](N)C(C)(C)C2)c(F)cc2c(=O)c(C(=O)O)cn(C3CC3)c12.Cl [(+) A-1, R-(+)-1-cyclopropyl-6-fluoro-8-methoxy-7-(4-amino-3,3-dimethylpiperidin-1-yl)-1,4-dihydro-4-oxo-quinoline-3-carboxylic acid hydrochloride]

thermodynamic stability of polymorph ([1]; from percent relative humidity stability study and aqueous solubility data): thermodynamically stable
Structure (SMILES): COc1c(N2CC[C@@H](N)C(C)(C)C2)c(F)cc2c(=O)c(C(=O)O)cn(C3CC3)c12.Cl [(+) A-2, R-(+)-1-cyclopropyl-6-fluoro-8-methoxy-7-(4-amino-3,3-dimethylpiperidin-1-yl)-1,4-dihydro-4-oxo-quinoline-3-carboxylic acid hydrochloride]

polymorph change on storage (Powder X-ray Diffraction spectrum and aqueous solubility change) [1, 3]: changed to polymorph A-2
Structure (SMILES): COc1c(N2CC[C@@H](N)C(C)(C)C2)c(F)cc2c(=O)c(C(=O)O)cn(C3CC3)c12.Cl [(+) A-3, R-(+)-1-cyclopropyl-6-fluoro-8-methoxy-7-(4-amino-3,3-dimethylpiperidin-1-yl)-1,4-dihydro-4-oxo-quinoline-3-carboxylic acid hydrochloride]

solubility [2]: 80 to 200 mg/mL
Structure (SMILES): COc1c(N2CC[C@@H](N)C(C)(C)C2)c(F)cc2c(=O)c(C(=O)O)cn(C3CC3)c12.CS(=O)(=O)O [(+) B-1, R-(+)-1-cyclopropyl-6-fluoro-8-methoxy-7-(4-amino-3,3-dimethylpiperidin-1-yl)-1,4-dihydro-4-oxo-quinoline-3-carboxylic acid mesylate]

polymorph change on storage (Powder X-ray Diffraction spectrum and aqueous solubility change) [1]: changed to polymorph A-3
Structure (SMILES): COc1c(N2CC[C@H](N)C(C)(C)C2)c(F)cc2c(=O)c(C(=O)O)cn(C3CC3)c12.Cl [(−) A-1, S-(−)-1-cyclopropyl-6-fluoro-8-methoxy-7-(4-amino-3,3-dimethylpiperidin-1-yl)-1,4-dihydro-4-oxo-quinoline-3-carboxylic acid hydrochloride]

polymorph change on storage (Powder X-ray Diffraction spectrum and aqueous solubility change) [1]: changed to polymorph A-3
thermodynamic stability of polymorph [1]: thermodynamically stable
Structure (SMILES): COc1c(N2CC[C@H](N)C(C)(C)C2)c(F)cc2c(=O)c(C(=O)O)cn(C3CC3)c12.Cl [(−) A-2, S-(−)-1-cyclopropyl-6-fluoro-8-methoxy-7-(4-amino-3,3-dimethylpiperidin-1-yl)-1,4-dihydro-4-oxo-quinoline-3-carboxylic acid hydrochloride]

thermodynamic stability of polymorph [1]: thermodynamically stable
Structure (SMILES): COc1c(N2CC[C@H](N)C(C)(C)C2)c(F)cc2c(=O)c(C(=O)O)cn(C3CC3)c12.Cl [(−) A-3, S-(−)-1-cyclopropyl-6-fluoro-8-methoxy-7-(4-amino-3,3-dimethylpiperidin-1-yl)-1,4-dihydro-4-oxo-quinoline-3-carboxylic acid hydrochloride]

polymorph change on storage (Powder X-ray Diffraction spectrum and aqueous solubility change) [1]: changed to polymorph A-3
Structure (SMILES): COc1c(N2CC[C@H](N)C(C)(C)C2)c(F)cc2c(=O)c(C(=O)O)cn(C3CC3)c12.Cl [(−) A-4, S-(−)-1-cyclopropyl-6-fluoro-8-methoxy-7-(4-amino-3,3-dimethylpiperidin-1-yl)-1,4-dihydro-4-oxo-quinoline-3-carboxylic acid hydrochloride]
